# “And” between values parts separate entries of the source, which are not always exact repeats. Equal entries are not always repeated. Inconclusive results are not listed.
# Tested on: CD8F1 mice, subcutaneous mammary adenocarcinoma, T/C%
# Test: NCI In Vivo Anticancer Drug Screen. Data for tumor model Mammary Adenocarcinoma CD8F1 (subcutaneous) in CD8F1
# Conditions: higher = larger tumour
# Method: The antitumor activity of compounds was measured in mice bearing transplantable tumors. Survival or tumor size were measured and the results are expressed as the measurement made in the treated group (T) divided by the measurement made in the vehicle treated control group (C). The tumor model used in this assay is Mammary Adenocarcinoma CD8F1 (subcutaneous) in CD8F1
# [1] = endpoint: median tumor weight (est.), dose: 25.0 mg/kg/injection, schedule: Q07DX005 (ip), vehicle: Klucel (hydroxypropylcellulose) (HPC)
# [2] = endpoint: median tumor weight (est.), dose: 50.0 mg/kg/injection, schedule: Q07DX005 (ip), vehicle: Klucel (hydroxypropylcellulose) (HPC)
# [3] = endpoint: median tumor weight (est.), dose: 100.0 mg/kg/injection, schedule: Q07DX005 (ip), vehicle: Klucel (hydroxypropylcellulose) (HPC)
# [4] = endpoint: median tumor weight (est.), dose: 12.5 mg/kg/injection, schedule: Q07DX005 (ip), vehicle: saline with Tween-80
# [5] = endpoint: median tumor weight change, dose: 125.0 mg/kg/injection, schedule: Q01DX001 (ip), vehicle: Klucel (hydroxypropylcellulose) (HPC)
# [6] = endpoint: median tumor weight (est.), dose: 25.0 mg/kg/injection, schedule: Q07DX005 (ip), vehicle: saline with Tween-80
# [7] = endpoint: median tumor weight (est.), dose: 50.0 mg/kg/injection, schedule: Q07DX005 (ip), vehicle: saline with Tween-80
# [8] = endpoint: median tumor weight (est.), dose: 100.0 mg/kg/injection, schedule: Q07DX005 (ip), vehicle: saline with Tween-80
# [9] = endpoint: median tumor weight (est.), dose: 200.0 mg/kg/injection, schedule: Q07DX005 (ip), vehicle: saline with Tween-80
# [10] = endpoint: median tumor weight (est.), dose: 400.0 mg/kg/injection, schedule: Q07DX005 (ip), vehicle: saline with Tween-80
structure (smiles),measurement,setting,value
CNC(=O)OCc1c(COC(=O)NC)c(C)n(-c2ccc(OC)cc2)c1C,T/C,"endpoint: median tumor weight (est.), dose: 6.25 mg/kg/injection, schedule: Q07DX005 (ip), vehicle: Klucel (hydroxypropylcellulose) (HPC)",113 % of control
same,T/C,"endpoint: median tumor weight (est.), dose: 12.5 mg/kg/injection, schedule: Q07DX005 (ip), vehicle: Klucel (hydroxypropylcellulose) (HPC)",90 % of control
same,T/C,[1],152 % of control
same,T/C,[2],23 % of control
same,T/C,[3],24 % of control
same,T/C,"endpoint: median tumor weight change, dose: 50.0 mg/kg/injection, schedule: Q01DX001 (ip), vehicle: Klucel (hydroxypropylcellulose) (HPC)",109 % of control
same,T/C,"endpoint: median tumor weight change, dose: 200.0 mg/kg/injection, schedule: Q01DX001 (ip), vehicle: Klucel (hydroxypropylcellulose) (HPC)",79 % of control
same,T/C,"endpoint: median tumor weight change, dose: 400.0 mg/kg/injection, schedule: Q01DX001 (ip), vehicle: Klucel (hydroxypropylcellulose) (HPC)",52 % of control
N#Cc1nc(C#N)c(Sc2ccccc2)c(Sc2ccccc2)c1Sc1ccccc1,T/C,"endpoint: median tumor weight (est.), dose: 6.25 mg/kg/injection, schedule: Q07DX005 (ip), vehicle: saline with Tween-80",165 % of control
same,T/C,[4],113 % of control
ClCC[N+]12CC[N+](CCCl)(CC1)C2,T/C,"endpoint: mean tumor weight, dose: 12.5 mg/kg/injection, schedule: Q07DX006 (ip), vehicle: water",16 % of control
same,T/C,"endpoint: mean tumor weight, dose: 25.0 mg/kg/injection, schedule: Q07DX006 (ip), vehicle: water",85 % of control
same,T/C,"endpoint: mean tumor weight, dose: 50.0 mg/kg/injection, schedule: Q07DX006 (ip), vehicle: water",72 % of control
same,T/C,"endpoint: mean tumor weight, dose: 100.0 mg/kg/injection, schedule: Q07DX006 (ip), vehicle: water",18 % of control
same,T/C,"endpoint: mean tumor weight, dose: 200.0 mg/kg/injection, schedule: Q07DX006 (ip), vehicle: water",3 % of control
same,T/C,"endpoint: median tumor weight (est.), dose: 12.5 mg/kg/injection, schedule: Q07DX005 (ip), vehicle: water",70 % of control
same,T/C,"endpoint: median tumor weight (est.), dose: 25.0 mg/kg/injection, schedule: Q07DX005 (ip), vehicle: water",54 % of control
same,T/C,"endpoint: median tumor weight (est.), dose: 50.0 mg/kg/injection, schedule: Q07DX005 (ip), vehicle: saline",68 % of control and 50 % of control
same,T/C,"endpoint: median tumor weight (est.), dose: 50.0 mg/kg/injection, schedule: Q07DX005 (ip), vehicle: water",49 % of control
same,T/C,"endpoint: median tumor weight (est.), dose: 100.0 mg/kg/injection, schedule: Q07DX005 (ip), vehicle: water",32 % of control
same,T/C,"endpoint: median tumor weight (est.), dose: 200.0 mg/kg/injection, schedule: Q07DX005 (ip), vehicle: saline",20 % of control
same,T/C,"endpoint: median tumor weight (est.), dose: 400.0 mg/kg/injection, schedule: Q07DX005 (ip), vehicle: saline",6 % of control
CCC1=C[C@H]2CN(CCc3c([nH]c4ccccc34)[C@@](C(=O)OC)(c3cc4c(cc3OC)N(C)[C@H]3[C@@](O)(C(=O)OC)[C@H](OC(C)=O)[C@]5(CC)C=CCN6CC[C@]43[C@@H]65)C2)C1,T/C,"endpoint: median tumor weight change, dose: 4.0 mg/kg/injection, schedule: Q01DX001 (ip), vehicle: water",100 % of control
same,T/C,"endpoint: median tumor weight change, dose: 8.0 mg/kg/injection, schedule: Q01DX001 (ip), vehicle: water",36 % of control
CC[C@]1(O)C[C@H]2CN(CCc3c([nH]c4ccccc34)[C@@](C(=O)OC)(c3cc4c(cc3OC)N(C)[C@H]3[C@@](O)(C(=O)OC)[C@H](OC(C)=O)[C@]5(CC)C=CCN6CC[C@]43[C@@H]65)C2)C1,T/C,"endpoint: median tumor weight (est.), dose: 0.25 mg/kg/injection, schedule: Q07DX005 (ip), vehicle: saline",70 % of control and 71 % of control
same,T/C,"endpoint: median tumor weight (est.), dose: 0.5 mg/kg/injection, schedule: Q07DX005 (ip), vehicle: saline",63 % of control and 83 % of control and 84 % of control
same,T/C,"endpoint: median tumor weight change, dose: 1.0 mg/kg/injection, schedule: Q01DX001 (ip), vehicle: saline",81 % of control
same,T/C,"endpoint: median tumor weight change, dose: 2.0 mg/kg/injection, schedule: Q01DX001 (ip), vehicle: saline",56 % of control
same,T/C,"endpoint: median tumor weight change, dose: 4.0 mg/kg/injection, schedule: Q01DX001 (ip), vehicle: saline",28 % of control
COc1cccc2c1C(=O)c1c(O)c3c(c(O)c1C2=O)C[C@@](O)(C(O)CO)C[C@@H]3OC1CC(N(Cc2ccccc2)Cc2ccccc2)C(O)C(C)O1 (some centres undefined),T/C,"endpoint: median tumor weight change, dose: 62.0 mg/kg/injection, schedule: Q01DX001 (ip), vehicle: water",14 % of control
same,T/C,"endpoint: median tumor weight change, dose: 125.0 mg/kg/injection, schedule: Q01DX001 (ip), vehicle: water",-48 % of control
O=c1n(CC2CO2)c(=O)n(CC2CO2)n1CC1CO1 (centres undefined),T/C,"endpoint: median tumor weight change, dose: 62.5 mg/kg/injection, schedule: Q01DX001 (ip), vehicle: saline",29 % of control
CC(=O)[C@H]1CC[C@H]2[C@@H]3C[C@H](C)C4=CC(=O)CC[C@]4(C)[C@H]3C(=O)C[C@]12C,T/C,"endpoint: mean tumor weight (est.), dose: 200.0 mg/kg/injection, schedule: Q07DX003 (ip), vehicle: saline",67 % of control
same,T/C,"endpoint: mean tumor weight (est.), dose: 400.0 mg/kg/injection, schedule: Q07DX003 (ip), vehicle: saline",61 % of control
same,T/C,"endpoint: mean tumor weight (est.), dose: 800.0 mg/kg/injection, schedule: Q07DX003 (ip), vehicle: saline",86 % of control
same,T/C,"endpoint: mean tumor weight, dose: 200.0 mg/kg/injection, schedule: Q07DX005 (ip), vehicle: saline",107 % of control
same,T/C,"endpoint: mean tumor weight, dose: 200.0 mg/kg/injection, schedule: Q07DX006 (ip), vehicle: saline",63 % of control
same,T/C,"endpoint: mean tumor weight, dose: 200.0 mg/kg/injection, schedule: Q07DX007 (ip), vehicle: saline",90 % of control
same,T/C,"endpoint: mean tumor weight, dose: 400.0 mg/kg/injection, schedule: Q07DX005 (ip), vehicle: saline",54 % of control
same,T/C,"endpoint: mean tumor weight, dose: 400.0 mg/kg/injection, schedule: Q07DX006 (ip), vehicle: saline",39 % of control
same,T/C,"endpoint: mean tumor weight, dose: 400.0 mg/kg/injection, schedule: Q07DX007 (ip), vehicle: saline",25 % of control
same,T/C,"endpoint: mean tumor weight, dose: 800.0 mg/kg/injection, schedule: Q07DX005 (ip), vehicle: saline",36 % of control
same,T/C,"endpoint: mean tumor weight, dose: 800.0 mg/kg/injection, schedule: Q07DX007 (ip), vehicle: saline",49 % of control
COc1cc(C(C)(C)C)cc(OC)c1C(O)(c1c(OC)cc(C(C)(C)C)cc1OC)c1c(OC)cc(C(C)(C)C)cc1OC,T/C,"endpoint: median tumor weight change, dose: 62.5 mg/kg/injection, schedule: Q01DX001 (ip), vehicle: saline with Tween-80",102 % of control
same,T/C,[5],98 % of control
same,T/C,"endpoint: median tumor weight change, dose: 250.0 mg/kg/injection, schedule: Q01DX001 (ip), vehicle: Klucel (hydroxypropylcellulose) (HPC)",62 % of control
same,T/C,"endpoint: median tumor weight change, dose: 250.0 mg/kg/injection, schedule: Q01DX001 (ip), vehicle: saline with Tween-80",48 % of control and 70 % of control
same,T/C,"endpoint: median tumor weight change, dose: 500.0 mg/kg/injection, schedule: Q01DX001 (ip), vehicle: Klucel (hydroxypropylcellulose) (HPC)",67 % of control
same,T/C,"endpoint: median tumor weight change, dose: 500.0 mg/kg/injection, schedule: Q01DX001 (ip), vehicle: saline with Tween-80",37 % of control and 46 % of control
same,T/C,"endpoint: median tumor weight change, dose: 1000.0 mg/kg/injection, schedule: Q01DX001 (ip), vehicle: saline with Tween-80",17 % of control
c1ccc2sc(SSN3CC4CCC(CC4)C3)nc2c1,T/C,[4],26 % of control
same,T/C,[6],33 % of control
same,T/C,[7],101 % of control
same,T/C,[8],81 % of control
same,T/C,[9],62 % of control
same,T/C,[10],53 % of control
CN(C)N=Nc1ccccc1,T/C,[1],87 % of control
same,T/C,[3],78 % of control
CCCCN(CCCC)C(Cl)=Nc1ccccc1,T/C,[5],82 % of control and 107 % of control
CC(C)(Oc1ccc(-c2cccc3ccccc23)cc1)C(=O)O,T/C,[1],48 % of control
same,T/C,[2],52 % of control
same,T/C,[3],57 % of control
same,T/C,"endpoint: median tumor weight (est.), dose: 200.0 mg/kg/injection, schedule: Q07DX005 (ip), vehicle: Klucel (hydroxypropylcellulose) (HPC)",79 % of control
same,T/C,"endpoint: median tumor weight (est.), dose: 400.0 mg/kg/injection, schedule: Q07DX005 (ip), vehicle: Klucel (hydroxypropylcellulose) (HPC)",39 % of control
O=P(O)(NCCCl)NCCCl,T/C,"endpoint: median tumor weight change, dose: 25.0 mg/kg/injection, schedule: Q01DX001 (ip), vehicle: saline",49 % of control
same,T/C,"endpoint: median tumor weight change, dose: 50.0 mg/kg/injection, schedule: Q01DX001 (ip), vehicle: saline",97 % of control
same,T/C,"endpoint: median tumor weight change, dose: 50.0 mg/kg/injection, schedule: Q01DX001 (ip), vehicle: suspension in saline",-39 % of control
same,T/C,"endpoint: median tumor weight change, dose: 100.0 mg/kg/injection, schedule: Q01DX001 (ip), vehicle: saline",41 % of control
same,T/C,"endpoint: median tumor weight change, dose: 200.0 mg/kg/injection, schedule: Q01DX001 (ip), vehicle: saline",-56 % of control
NCCCNCCSP(=O)(O)O,T/C,[6],39 % of control
same,T/C,[7],33 % of control
same,T/C,[8],50 % of control
same,T/C,[9],28 % of control
same,T/C,[10],42 % of control
O=C(O)c1ccc(C(=O)O)c(C(=O)O)c1.[NH-]C1CCCCC1[NH-].[Pt+2],T/C,"endpoint: median tumor weight (est.), dose: 1.56 mg/kg/injection, schedule: Q07DX005 (ip), vehicle: sodium bicarbonate",38 % of control
same,T/C,"endpoint: median tumor weight (est.), dose: 3.12 mg/kg/injection, schedule: Q07DX005 (ip), vehicle: sodium bicarbonate",24 % of control
same,T/C,"endpoint: median tumor weight (est.), dose: 6.25 mg/kg/injection, schedule: Q07DX005 (ip), vehicle: sodium bicarbonate",11 % of control
same,T/C,"endpoint: median tumor weight (est.), dose: 12.5 mg/kg/injection, schedule: Q07DX005 (ip), vehicle: sodium bicarbonate",11 % of control
same,T/C,"endpoint: median tumor weight (est.), dose: 25.0 mg/kg/injection, schedule: Q07DX005 (ip), vehicle: sodium bicarbonate",32 % of control
